From publication PMC10385865, “Synthesis and Anticancer Activity of Novel Dual Inhibitors of Human Protein Kinases CK2 and PIM-1” (Pharmaceutics, 2023)

Legend:
CK2 = molecular target: CK2; design: method as in PMID 33807474; conditions: Figure 1, representative CK2 inhibitors; cited from earlier work
PIM-1 = molecular target: T1, PIM-1 (Homo sapiens, UniProt P11309); experiment: P81 filter isotopic (radiometric) kinase assay, PIM-1; format: biochemical; conditions: substrate peptide […], Ki from IC50 by Cheng–Prusoff
T1 construct: made in house
Experimental: (§1) The obtained compounds were tested for their inhibitory activity toward human CK2α, human CK2 holoenzyme, and PIM-1 using a P81 filter isotopic assay as described previously. […] The experimental data were fitted to the sigmoidal dose–response equation, i.e., (variable slope) Y = Bottom + (Top-Bottom)/(1 + 10^((LogIC50−X)∗HillSlope), in GraphPad Prism (Prism 9, v. 9.0.1).
(§2) Inhibition of the human CK2 catalytic subunit (CK2α), CK2 holoenzyme (CK2α2β2), and PIM-1 by the newly obtained compounds was evaluated using a radiometric assay (Table 1, Figure S2). The synthetic peptide […] was used as the substrate of CK2, and peptide […] was used as the substrate of PIM-1. The values of the inhibition constant (Ki) were calculated using the Cheng–Prusoff equation: Ki = IC50/(1 + [S]/Km).

human CK2α = molecular target: T2, human CK2α (Homo sapiens, UniProt P68400); experiment: P81 filter isotopic (radiometric) kinase assay, CK2 catalytic subunit; format: biochemical; conditions: substrate peptide […], Ki from IC50 by Cheng–Prusoff
T2 construct: made in house
Experimental: as §1, §2

Vero cells = experiment: MTT-based viability assay, non-cancerous Vero cells; format: cell-based, Cercopithecus aethiops; conditions: Chlorocebus sabaeus, MTT, 48 h, read-out: IC50 Vero
Experimental: (§3) After incubation with the tested compounds, an MTT test was performed as described previously. Optical densities were measured at 570 nm using a BioTek microplate reader (BioTek Instruments, Inc., Winooski, VT, USA). All measurements were carried out in a minimum of three biological replicates.
(§4) . The IC50 values describing the half-maximal effective concentration of each tested compound were calculated and are summarized in Table 2. […].

[1] = molecular target: T3, human CK2 holoenzyme (CK2α2β2) (Homo sapiens, UniProt P68400); experiment: P81 filter isotopic (radiometric) kinase assay, CK2 holoenzyme; format: biochemical; conditions: substrate peptide […], Ki from IC50 by Cheng–Prusoff
T3 construct: made in house
Experimental: as §1, §2

[2] = system: CCRF-CEM (acute lymphoblastic leukemia); experiment: MTT-based viability assay, CCRF-CEM; format: cell-based, human; conditions: for IC50: Homo sapiens, CCRF-CEM, MTT, 48 h, read-out: IC50 CCRF-CEM; for SI (selectivity index) CCRF-CEM: IC50 Vero/IC50 cancer cells
Experimental: as §3, §4

[3] = system: K-562 (chronic myelogenous leukemia); experiment: MTT-based viability assay, K-562; format: cell-based, human; conditions: for IC50: Homo sapiens, K562, MTT, 48 h, read-out: IC50 K-562; for SI (selectivity index) K-562: IC50 Vero/IC50 cancer cells
Experimental: as §3, §4

MCF-7 (breast carcinoma) = experiment: MTT-based viability assay, MCF-7; format: cell-based, human; conditions: for IC50: Homo sapiens, MCF7, MTT, 48 h, read-out: IC50 MCF-7; for SI (selectivity index) MCF-7: IC50 Vero/IC50 cancer cells
Experimental: as §3, §4

PIM1 = molecular target: PIM1; design: method as in PMID 23360763, PMID 24442476, PMID 34200807; conditions: Figure 1, dual CK2/PIM-1 inhibitors; cited from earlier work
CK2-α = molecular target: CK2-α; design: method as in PMID 23360763, PMID 24442476, PMID 34200807; conditions: Figure 1, dual CK2/PIM-1 inhibitors; cited from earlier work

T1 sequence (P11309 whole entry): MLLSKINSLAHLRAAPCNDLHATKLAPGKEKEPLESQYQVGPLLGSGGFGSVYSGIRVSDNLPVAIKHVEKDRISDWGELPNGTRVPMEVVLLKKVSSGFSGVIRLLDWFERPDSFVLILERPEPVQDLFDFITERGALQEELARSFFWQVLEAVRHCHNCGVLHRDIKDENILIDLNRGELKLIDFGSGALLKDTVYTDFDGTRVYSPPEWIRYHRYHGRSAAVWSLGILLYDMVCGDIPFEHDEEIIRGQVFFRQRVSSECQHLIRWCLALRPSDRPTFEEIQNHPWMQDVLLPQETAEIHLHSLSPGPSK
T3 sequence (P68400 whole entry): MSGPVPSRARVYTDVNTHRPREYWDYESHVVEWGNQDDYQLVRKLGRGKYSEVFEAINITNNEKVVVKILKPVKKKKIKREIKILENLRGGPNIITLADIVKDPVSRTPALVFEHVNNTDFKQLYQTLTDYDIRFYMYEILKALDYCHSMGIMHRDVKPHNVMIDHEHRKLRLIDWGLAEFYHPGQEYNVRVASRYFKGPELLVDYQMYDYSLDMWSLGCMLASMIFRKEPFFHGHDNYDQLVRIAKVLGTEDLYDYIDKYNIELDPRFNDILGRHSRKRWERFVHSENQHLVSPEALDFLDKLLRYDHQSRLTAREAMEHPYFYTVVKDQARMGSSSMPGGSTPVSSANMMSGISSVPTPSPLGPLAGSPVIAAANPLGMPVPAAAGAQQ
T3 sequence (P67870 whole entry partner): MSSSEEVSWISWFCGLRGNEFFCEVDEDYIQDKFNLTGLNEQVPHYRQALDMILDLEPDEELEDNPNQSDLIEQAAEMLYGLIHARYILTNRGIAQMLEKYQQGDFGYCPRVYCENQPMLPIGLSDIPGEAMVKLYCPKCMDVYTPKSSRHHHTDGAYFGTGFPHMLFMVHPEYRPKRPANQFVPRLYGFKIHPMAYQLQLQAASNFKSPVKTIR
T2 sequence (P68400 whole entry): as the sequence (P68400 whole entry) above

Row | Ki (PIM-1) [µM] | Ki (human CK2α) [µM] | Ki [1] [µM] | IC50 [2] [µM] | IC50 [3] [µM] | IC50 (MCF-7 (breast carcinoma)) [µM] | Compound | Ki (CK2) [µM] | IC50 (Vero cells) [µM] | SI (selectivity index) CCRF-CEM [2] | SI (selectivity index) K-562 [3] | SI (selectivity index) MCF-7 (MCF-7 (breast carcinoma)) | Ki (PIM1) [µM] | Ki (CK2-α) [µM]
1 |  |  |  |  |  |  | O=c1[nH]c2c(Br)c(Br)c(Br)c(Br)c2[nH]1 [Compound K32, 4,5,6,7-tetrabromo-2,3-dihydro-1H-1,3-benzodiazol-2-one] | 0.15 |  |  |  |  |  | 
2 |  |  |  |  |  |  | OC[C@H]1O[C@@H](n2cnc3cc(Cl)c(Cl)cc32)[C@H](O)[C@@H]1O [DRB, 5,6-dichloro-1-β-D-ribofuranosylbenzimidazole] | 23 |  |  |  |  |  | 
3 | 0.089 | 0.394 | 0.104 | 22.31 ± 0.1 | 39.6 ± 8.11 | 16.1 ± 0.19 | C[C@@H](O)CNc1nc2c(Br)c(Br)c(Br)c(Br)c2[nH]1 [(R)-5, (2R)-1-[(4,5,6,7-tetrabromo-1H-benzimidazol-2-yl)amino]propan-2-ol] |  | 28.3 ± 0.43 | 1.27 | 0.71 | 1.76 |  | 
4 | 0.082 | 0.156 | 0.114 | 25.6 ± 0.54 | 33.7 ± 4.92 | 18.2 ± 0.3 | OCCCNc1nc2c(Br)c(Br)c(Br)c(Br)c2[nH]1 [Compound 7, 3-[(4,5,6,7-Tetrabromo-1H-benzimidazol-2-yl)amino]propan-1-ol] |  | 29.46 ± 0.12 | 1.15 | 0.87 | 1.62 |  | 
5 | 0.267 | 1.67 | 0.605 | 13.6 ± 0.84 | 11.6 ± 2.85 | 10.8 ± 0.23 | CCN(CC)CC(O)CNc1nc2c(Br)c(Br)c(Br)c(Br)c2[nH]1 (racemic) [rac-9, 1-(Diethylamino)-3-[(4,5,6,7-tetrabromo-1H-benzimidazol-2-yl)amino]propan-2-ol] |  | 12 ± 0.21 | 0.88 | 1.03 | 1.11 |  | 
6 |  |  |  |  |  |  | 4,5,6,7-tetrabromo-2,3-dihydro-1H-1,3-benzodiazol-2-one [Compound K37] | 0.07 |  |  |  |  |  | 
7 | 0.099 | 0.271 | 0.167 | 23.2 ± 4.01 | 39.3 ± 9.05 | 16.6 ± 0.3 | C[C@H](O)CNc1nc2c(Br)c(Br)c(Br)c(Br)c2[nH]1 [(S)-5, (2S)-1-[(4,5,6,7-tetrabromo-1H-benzimidazol-2-yl)amino]propan-2-ol] |  | 25.2 ± 0.54 | 1.11 | 0.64 | 1.52 |  | 
8 | 0.071 | 0.256 | 0.072 | 17.4 ± 0.27 | 40 ± 7.45 | 15.1 ± 0.39 | CN(CCO)c1nc2c(Br)c(Br)c(Br)c(Br)c2[nH]1 [Compound 8, 2-[Methyl(4,5,6,7-tetrabromo-1H-benzimidazol-2-yl)amino]ethanol] |  | 16.1 ± 0.27 | 0.92 | 0.40 | 1.06 |  | 
9 |  |  |  |  |  |  | Brc1c(Br)c(Br)c2[nH]cnc2c1Br [TBBi, 4,5,6,7-tetrabromo-1H-benzimidazole] | 0.3 |  |  |  |  |  | 
10 | 0.093 | 0.139 | 0.124 | 24.47 ± 0.21 | 38.1 ± 5.56 | 16.6 ± 0.23 | OCC(CO)Nc1nc2c(Br)c(Br)c(Br)c(Br)c2[nH]1 [Compound 10, 2-[(4,5,6,7-Tetrabromo-1H-benzimidazol-2-yl)amino]propane-1,3-diol] |  | 25.19 ± 0.1 | 1.03 | 0.66 | 1.51 |  | 
11 |  |  |  |  |  |  | OC[C@H]1O[C@@H](n2cnc3c(Br)c(Br)c(Br)c(Br)c32)C[C@@H]1O [TDB (K164), 1-(β-D-2′-deoxyribofuranosyl)-4,5,6,7-tetrabromo-1H-benzimidazole] |  |  |  |  |  | 0.04 | 
12 | 0.064 | 0.296 | 0.127 | 21.7 ± 0.86 | 38.7 ± 8.08 | 16.9 ± 0.3 | CC(O)CNc1nc2c(Br)c(Br)c(Br)c(Br)c2[nH]1 (racemic) [rac-5, 1-[(4,5,6,7-Tetrabromo-1H-benzimidazol-2-yl)amino]propan-2-ol] |  | 22.58 ± 0.13 | 1.04 | 0.58 | 1.34 |  | 
13 | 0.073 | 0.151 | 0.089 | 33.8 ± 0.26 | 41.5 ± 8.45 | 17.2 ± 0.39 | OCC(O)CNc1nc2c(Br)c(Br)c(Br)c(Br)c2[nH]1 (racemic) [rac-11, 3-[(4,5,6,7-Tetrabromo-1H-benzimidazol-2-yl)amino]propane-1,2-diol] |  | 41.53 ± 0.1 | 1.23 | 1.00 | 2.41 |  | 
14 |  |  |  |  |  |  | Cc1nc2c(Br)c(Br)c(Br)c(Br)c2n1CCCO [N^1-PrOH-2-MeTBBi, 3-(4,5,6,7-tetrabromo-2-methyl-1H-1,3-benzodiazol-1-yl)propan-1-ol] |  |  |  |  |  | 0.15 | 0.05
